{
  "source": "paper PMC9380819",
  "about": "(ACS Omega, 2022)",
  "key": {"[1]": {"test_system": "SARS-CoV-2 (isolate USA WA1/2020)", "assay": "microbe, parasite or virus in culture", "format": "cell-based", "details": "Severe acute respiratory syndrome coronavirus 2, Calu-3"}, "[2]": {"test_system": "SARS-CoV-2", "details": "Vero cells; cited from earlier work"}, "[3]": {"test_system": "ACE2", "details": "read-out: IC50 exopeptidase activity; cited from earlier work"}, "[4]": {"target": "SARS-CoV-2 spike RBD: hACE2 (Severe acute respiratory syndrome coronavirus 2, UniProt P0DTC2)", "format": "biochemical"}, "[5]": {"target": "SARS-CoV-2 spike RBD (331–528 amino acids) (Severe acute respiratory syndrome coronavirus 2, UniProt P0DTC2)", "assay": "biochemical", "format": "binding"}, "[6]": {"test_system": "SARS-CoV-2", "details": "cited from earlier work"}, "[7]": {"test_system": "SARS-CoV-2", "format": "cell-based"}, "[8]": {"test_system": "SARS-CoV-2", "details": "10 μM, after 48 h; cited from earlier work"}, "[9]": {"assay": "in vitro", "details": "human"}, "[10]": {"test_system": "spike protein–ACE2 interaction", "details": "not tested against virally infected cells; cited from earlier work"}, "[11]": {"test_system": "SARS-CoV-2", "details": "cited from earlier work", "remark": "listed apart in the source"}},
  "note": "Entries after “also recorded” stand apart in the source; their conditions may differ.",
  "data": [
    {"smiles": "CCC(CC)COC(=O)[C@H](C)N[P@](=O)(OC[C@H]1O[C@@](C#N)(c2ccc3c(N)ncnn23)[C@H](O)[C@@H]1O)Oc1ccccc1", "note": "[Remdesivir]", "values": [
      {"measurement": "EC50", "setting": "[1]", "value": 0.08, "unit": "µM"}
    ]},
    {"smiles": "Oc1c(I)cc(Cl)c2cccnc12", "note": "[cliquinol]", "values": [
      {"measurement": "EC50", "setting": "[2]", "value": 12.6, "unit": "µM"},
      {"measurement": "IC50", "setting": "[3]", "value": 5.36, "unit": "µM"}
    ]},
    {"smiles": "CC(C)NCC(O)COc1cccc2[nH]ccc12", "note": "(stereo not drawn) [pindolol, Pindolol]", "values": [
      {"measurement": "disruption of the interaction between the RBD and ACE2", "setting": "[4]", "value": "none of the compounds tested were able to disrupt the interaction"},
      {"measurement": "Kd", "setting": "[5]", "value": "0.57 ± 0.144", "unit": "µM"}
    ]},
    {"smiles": "CCN(CC)CCOc1ccc2c(c1)C(=O)c1cc(OCCN(CC)CC)ccc1-2", "note": "[tilorone]", "values": [
      {"measurement": "activity in A549-ACE2 cells", "setting": "[6]", "value": "sub-micromolar"}
    ]},
    {"smiles": "CC(C)(C)NCC(O)COc1cccc2c1CCC(=O)N2", "note": "(stereo not drawn) [carteolol]", "values": [
      {"measurement": "disruption of the interaction between the RBD and ACE2", "setting": "[4]", "value": "none of the compounds tested were able to disrupt the interaction"},
      {"measurement": "Kd", "setting": "[5]", "value": "0.459 ± 0.111", "unit": "µM"}
    ]},
    {"smiles": "CC(C)NCC(O)COc1ccc(CC(N)=O)cc1", "note": "(stereo not drawn) [atenolol]", "values": [
      {"measurement": "SARS-CoV-2 adsorption to Vero E6 cells", "setting": "[7]", "value": "statistically decreased SARS-CoV-2 adsorption"},
      {"measurement": "inhibition of SARS-CoV-2-induced cytotoxicity of Caco-2 cells", "setting": "[8]", "value": 25.84, "unit": "%"}
    ]},
    {"smiles": "COc1ccccc1OCCNCC(O)COc1cccc2[nH]c3ccccc3c12", "note": "(stereo not drawn) [carvedilol]", "values": [
      {"measurement": "disruption of the interaction between the RBD and ACE2", "setting": "[4]", "value": "none of the compounds tested were able to disrupt the interaction"},
      {"measurement": "CC50", "setting": "[9]", "value": 18.1, "unit": "µM"},
      {"measurement": "SARS-CoV-2 adsorption to Vero E6 cells", "setting": "[7]", "value": "statistically decreased SARS-CoV-2 adsorption; also recorded: highest reduction on SARS-CoV-2 adsorption"},
      {"measurement": "Kd", "setting": "[5]", "value": "0.364 ± 0.022", "unit": "µM"},
      {"measurement": "EC50", "setting": "[1]", "value": 7.57, "unit": "µM"},
      {"measurement": "inhibition of SARS-CoV-2-induced cytotoxicity of Caco-2 cells", "setting": "[8]", "value": "did not show activity"}
    ]},
    {"smiles": "O=c1c(O)c(-c2ccc(O)c(O)c2)oc2cc(O)cc(O)c12", "note": "[Quercetin]", "values": [
      {"measurement": "IC50", "setting": "[10]", "value": 7, "unit": "µM"}
    ]},
    {"smiles": "COc1ccc2nc3cc(Cl)ccc3c(Nc3cc(CN4CCCC4)c(O)c(CN4CCCC4)c3)c2n1", "note": "[pyronaridine]", "values": [
      {"measurement": "activity in A549-ACE2 cells", "setting": "[6]", "value": "sub-micromolar"},
      {"measurement": "efficacy in a mouse model infected with SARS-CoV-2", "setting": "[11]", "value": "demonstrated efficacy"}
    ]},
    {"smiles": "CCN(CC)CCCC(C)Nc1c2ccc(Cl)cc2nc2ccc(OC)cc12", "note": "(stereo not drawn) [quinacrine]", "values": [
      {"measurement": "activity in A549-ACE2 cells", "setting": "[6]", "value": "sub-micromolar"}
    ]},
    {"smiles": "CCCCC/C=C\\C/C=C\\CCCCCCCC(=O)O", "note": "[linoleic acid]", "values": [
      {"measurement": "disruption of the interaction between the RBD and ACE2", "setting": "[4]", "value": "not able to disrupt the interaction"}
    ]},
    {"smiles": "CC(C)NCC(O)COc1ccc(COCCOC(C)C)cc1", "note": "(racemic) [bisoprolol, (±)-Bisoprolol hemifumarate]", "values": [
      {"measurement": "disruption of the interaction between the RBD and ACE2", "setting": "[4]", "value": "none of the compounds tested were able to disrupt the interaction"},
      {"measurement": "SARS-CoV-2 adsorption to Vero E6 cells", "setting": "[7]", "value": "statistically decreased SARS-CoV-2 adsorption"},
      {"measurement": "binding to the RBD spike in MST", "setting": "[5]", "value": "did not bind"}
    ]}
  ]
}
